Source: patent publication US10526337B2, “Heteroaryl derivative or pharmaceutically acceptable salt thereof, preparation method therefor, and pharmaceutical composition for preventing or treating diseases associated with PI3 kinases, containing same as active ingredient” (KOREA RESEARCH INSTITUTE OF CHEMICAL TECHNOLOGY, priority 2015, dated 2020)

What was measured:
[1] = molecular target: T1, PI3 Kinase (p110δ/p85α) (h) (Homo sapiens, UniProt O00329); experiment: Inhibition of phosphatidylinositol 3-kinase delta (PI3K δ), pAkt Western blotting in IgM-stimulated Raji cells; format: cell-based; conditions: ATP=10 uM, sample concentration=100 nM
T1 construct: endogenous in cells; host or cells: Raji
Protocol: (§1) The stimulated cells were transferred in a 1.5 mL tube, followed by centrifugation at 3000 rpm for 1 minute. 100 μL of RIPA buffer (radioimmunoprecipitation assay buffer, 50 mM Tris-HCl, 5 mM EDTA, 150 mM NaCl, 1% NP-40, 1 mM PMSF, pH 8.0; ELPIS, Korea) was added thereto, which was stored in a 4° C. refrigerator for 12 hours. Centrifugation was performed at 4° C. at 14,000 rpm for 20 minutes. The supernatant was transferred into a new 1.5 mL tube. Protein was quantified by BCA (bicinchoninic acid) method and samples were prepared. The composition of the sample was as follows: sample buffer (ELPIS, EBA-1052) 5×, protein 10 μg, and 1× sample buffer to make the total volume 20 μL. The sample was heated at 100° C. for 5 minutes. The evaporated water vapor was condensed in a refrigerator. The liquid stained on the wall was fallen down by centrifugation for a few seconds. The sample proceeded to 10% SDS (Sodium Dodecyl Sulfate) acrylamide gel for separation. The separated protein was transferred onto PVDF (poly-vinyl difluoride) membrane, followed by reaction with pAkt (phospho protein kinase B) antibody (Ser473 or Thr308; Cell signaling, 9271s or 13038s) for 12 hours at 4° C. The membrane was washed with TBST (Tris-Buffered Saline with Tween 20, 10 mM Tris-HCl, pH 7.5, 150 mM NaCl, 0.1% Tween-20) three times for 5 minutes each, to which the secondary antibody (rabbit antibody, Santacruz, sc-2004) was added, followed by reaction at room temperature for 2 hours. The membrane was washed with TBST three times for 10 minutes each, to which ECL (enhanced chemiluminescence, Thermo, NCI34095KR) was sprayed. Bands were investigated by using LAS-3000.
The inhibition of phosphatidylinositol 3 kinase delta (PI3K δ) by those compounds prepared in Examples 1˜98 was investigated by the following experiment. The inhibition activity of each compound was measured in the following conditions: ATP=10 uM, and sample concentration=100 nM.
(§2) Raji cells cultured in RPMI1640 (Hyclone, SH30027.02) supplemented with 10% fetal bovine serum (Hyclon, USA) were distributed in a 12-well plate at the density of 1,000,000 cells/well. The cells were stabilized in a 37° C. CO2 for 24 hours and then treated with each compound for 1 and half hours. The cells were treated with 0.25 μg/mL of IgM (immunoglobulin M, Southern Biotech, USA) to increase the intracellular activity of PI3K delta. 30 minutes later, the medium was discarded and the cells were washed with cold PBS (phosphate buffered saline, Gibco, 14190-250). PBS was then eliminated completely by using a pipette. Western blotting was performed according to the same manner as described in step 2 of Experimental Example 1 to evaluate the intracellular PI3K delta activity.

PI3 Kinase (p120γ) (h) = molecular target: T2, PI3 Kinase (p120γ) (h) (Homo sapiens, UniProt P48736); experiment: Inhibition of phosphatidylinositol 3-kinase gamma (PI3K γ), pAkt Western blotting in C5a-stimulated RAW264.7 macrophages; format: cell-based, mouse; conditions: ATP=10 uM, sample concentration=100 nM
T2 construct: endogenous in cells; host or cells: RAW264.7
Protocol: as §1
The inhibition of phosphatidylinositol 3 kinase gamma (PI3K γ) by those compounds prepared in Examples 1˜98 was investigated by the following experiment. The inhibition activity of each compound was measured in the following conditions: ATP=10 uM, and sample concentration=100 nM.
as §2, with “Macrophages (RAW264.7)” for “Raji cells”, “DMEM (Dulbecco's Modified Eagle Medium, Hyclon, SH30243.01)” for “RPMI1640 (Hyclone, SH30027.02)”, “10 ng/mL” for “0.25 μg/mL”, “C5a (complement component 5a, 10 μg/mL; R&D, 2150-C5)” for “IgM (immunoglobulin M, Southern Biotech, USA)”, “gamma. 5” for “delta. 30”, “gamma” for “delta”

T2 sequence (P48736 whole entry): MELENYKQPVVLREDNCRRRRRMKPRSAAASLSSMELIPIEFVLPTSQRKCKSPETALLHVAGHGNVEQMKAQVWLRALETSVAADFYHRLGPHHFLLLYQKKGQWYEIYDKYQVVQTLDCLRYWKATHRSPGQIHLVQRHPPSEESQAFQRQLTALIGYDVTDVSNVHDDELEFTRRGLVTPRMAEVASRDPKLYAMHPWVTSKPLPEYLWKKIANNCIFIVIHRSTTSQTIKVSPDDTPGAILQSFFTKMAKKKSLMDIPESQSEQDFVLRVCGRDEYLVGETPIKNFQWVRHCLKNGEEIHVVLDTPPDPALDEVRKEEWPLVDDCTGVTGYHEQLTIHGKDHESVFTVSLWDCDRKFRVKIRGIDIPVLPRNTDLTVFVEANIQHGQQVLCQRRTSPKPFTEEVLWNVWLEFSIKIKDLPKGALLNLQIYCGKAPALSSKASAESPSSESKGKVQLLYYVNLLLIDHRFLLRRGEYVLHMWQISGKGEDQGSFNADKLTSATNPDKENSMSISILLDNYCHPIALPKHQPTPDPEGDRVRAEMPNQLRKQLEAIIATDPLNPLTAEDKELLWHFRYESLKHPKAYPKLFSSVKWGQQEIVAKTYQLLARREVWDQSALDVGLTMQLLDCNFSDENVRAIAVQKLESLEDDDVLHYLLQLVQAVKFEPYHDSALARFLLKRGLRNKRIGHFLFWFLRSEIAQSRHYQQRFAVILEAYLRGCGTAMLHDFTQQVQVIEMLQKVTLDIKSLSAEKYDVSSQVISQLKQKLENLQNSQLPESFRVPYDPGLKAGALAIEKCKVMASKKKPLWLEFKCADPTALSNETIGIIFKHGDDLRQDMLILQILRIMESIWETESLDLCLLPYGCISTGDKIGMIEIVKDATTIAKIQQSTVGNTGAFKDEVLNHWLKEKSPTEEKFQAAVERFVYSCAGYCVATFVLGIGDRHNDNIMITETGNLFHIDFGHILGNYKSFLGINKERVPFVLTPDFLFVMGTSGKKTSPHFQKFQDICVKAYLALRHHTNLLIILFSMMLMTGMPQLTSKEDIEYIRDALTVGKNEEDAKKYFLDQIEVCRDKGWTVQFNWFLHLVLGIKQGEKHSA
T1 sequence (O00329 whole entry): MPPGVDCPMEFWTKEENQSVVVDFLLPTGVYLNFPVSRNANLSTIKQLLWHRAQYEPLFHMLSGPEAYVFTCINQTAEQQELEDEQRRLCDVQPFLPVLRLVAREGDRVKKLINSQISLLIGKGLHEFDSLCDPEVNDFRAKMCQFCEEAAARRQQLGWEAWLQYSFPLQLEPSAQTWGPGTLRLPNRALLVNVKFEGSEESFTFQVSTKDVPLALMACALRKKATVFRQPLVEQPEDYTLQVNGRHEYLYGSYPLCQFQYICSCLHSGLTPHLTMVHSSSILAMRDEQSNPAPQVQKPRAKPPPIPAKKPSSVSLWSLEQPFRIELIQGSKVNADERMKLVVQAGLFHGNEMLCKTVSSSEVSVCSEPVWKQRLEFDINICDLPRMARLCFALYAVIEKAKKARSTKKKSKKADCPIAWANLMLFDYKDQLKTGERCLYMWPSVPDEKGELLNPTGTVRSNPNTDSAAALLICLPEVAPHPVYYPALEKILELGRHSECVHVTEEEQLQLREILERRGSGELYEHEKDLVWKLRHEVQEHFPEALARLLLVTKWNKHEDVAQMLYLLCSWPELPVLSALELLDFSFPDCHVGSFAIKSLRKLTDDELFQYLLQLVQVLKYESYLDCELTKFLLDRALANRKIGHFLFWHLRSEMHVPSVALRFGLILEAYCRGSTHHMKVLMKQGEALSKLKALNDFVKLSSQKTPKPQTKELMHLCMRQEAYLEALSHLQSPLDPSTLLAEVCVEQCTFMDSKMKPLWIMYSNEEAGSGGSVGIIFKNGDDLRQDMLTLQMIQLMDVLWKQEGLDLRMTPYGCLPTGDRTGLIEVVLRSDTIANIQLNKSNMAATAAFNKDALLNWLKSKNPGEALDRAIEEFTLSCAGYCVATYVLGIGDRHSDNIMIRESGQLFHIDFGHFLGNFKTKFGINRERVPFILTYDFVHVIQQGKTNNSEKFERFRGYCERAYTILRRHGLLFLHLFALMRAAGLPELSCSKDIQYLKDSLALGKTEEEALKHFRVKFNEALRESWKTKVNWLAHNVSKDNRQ
T1 sequence (P27986 whole entry partner): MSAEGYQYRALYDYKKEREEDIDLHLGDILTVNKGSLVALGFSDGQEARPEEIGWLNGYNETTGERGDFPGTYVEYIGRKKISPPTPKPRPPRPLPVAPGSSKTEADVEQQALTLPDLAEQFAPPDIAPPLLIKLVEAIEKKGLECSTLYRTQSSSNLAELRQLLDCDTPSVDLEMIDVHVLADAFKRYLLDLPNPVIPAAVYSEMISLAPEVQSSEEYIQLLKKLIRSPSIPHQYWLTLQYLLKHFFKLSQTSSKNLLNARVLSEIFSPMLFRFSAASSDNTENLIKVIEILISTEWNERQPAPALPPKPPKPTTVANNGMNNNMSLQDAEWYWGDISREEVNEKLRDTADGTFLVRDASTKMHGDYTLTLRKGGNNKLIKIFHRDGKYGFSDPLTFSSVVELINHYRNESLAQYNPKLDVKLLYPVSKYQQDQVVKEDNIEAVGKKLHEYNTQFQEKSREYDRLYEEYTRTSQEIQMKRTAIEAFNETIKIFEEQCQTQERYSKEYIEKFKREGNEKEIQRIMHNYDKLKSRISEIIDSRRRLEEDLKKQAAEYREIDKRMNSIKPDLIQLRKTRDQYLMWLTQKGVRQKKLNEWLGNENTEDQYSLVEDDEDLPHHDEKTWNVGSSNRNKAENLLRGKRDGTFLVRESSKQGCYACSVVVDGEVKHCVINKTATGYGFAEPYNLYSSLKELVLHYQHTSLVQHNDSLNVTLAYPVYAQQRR

SMILES	IC50 [1] [nM]	IC50 (PI3 Kinase (p120γ) (h)) [nM]
C[C@H](Nc1ncnc2[nH]ccc(=O)c12)c1nc2ccc(F)cc2c(=O)n1Cc1ccccn1 [Example 32, (S)-4-((1-(6-fluoro-4-oxo-3-(pyridine-2-ylmethyl)-3,4-dihydroquinazoline-2-yl)ethyl)amino)pyrido[2,3-d]pyrimidine-5(8H)-one]	> 500	–
C[C@H](Nc1ncnc2c1C(=O)N(C)CN2)c1nc2cccc(Cl)c2c(=O)n1-c1ccccc1 [Example 34, (S)-5-((1-(5-chloro-4-oxo-3-phenyl-3,4-dihydroquinazoline-2-yl)ethyl)amino)-3-methyl-2,3-dihydropyrimido[4,5-d]pyrimidine-4(1H)-one]	< 10	10 to 500
C[C@H](Nc1ncnc2c1C(=O)N(C)CN2)c1nc2cccc(Cl)c2c(=O)n1-c1cccnc1 [Example 35, (S)-5-((1-(5-chloro-4-oxo-3-(pyridine-3-yl)-3,4-dihydroquinazoline-2-yl)ethyl)amino)-3-methyl-2,3-dihydropyrimido[4,5-d]pyrimidine-4(1H)-one]	10 to 500	10 to 500
C[C@H](Nc1ncnc2c1C(=O)N(C)CN2)c1nc2cccc(Cl)c2c(=O)n1-c1cccc(F)c1 [Example 36, (S)-5-((1-(5-chloro-3-(3-fluorophenyl)-4-oxo-3,4-dihydroquinazoline-2-yl)ethyl)amino)-3-methyl-2,3-dihydropyrimido[4,5-d]pyrimidine-4(1H)-one]	< 10	10 to 500
Cc1cccc(-n2c([C@H](C)Nc3ncnc4c3C(=O)N(C)CN4)nc3cccc(Cl)c3c2=O)c1 [Example 37, (S)-5-((1-(5-chloro-4-oxo-3-(m-tolyl)-3,4-dihydroquinazoline-2-yl)ethyl)amino)-3-methyl-2,3-dihydropyrimido[4,5-d]pyrimidine-4(1H)-one]	< 10	10 to 500
CC(Nc1ncnc2c1C(=O)N(C)CN2)c1cc2ccccc2nc1-c1ccccc1 (stereo not drawn) [Example 39, 3-methyl-5-((1-(2-phenylquinoline-3-yl)ethyl)amino)-2,3-dihydropyrimido[4,5-d]pyrimidine-4(1H)-one]	10 to 500	10 to 500
C[C@H](Nc1ncnc2c1C(=O)N(C)CN2)c1cc2ccccc2nc1-c1ccccc1 [Example 39-1, (S)-3-methyl-5-((1-(2-phenylquinoline-3-yl)ethyl)amino)-2,3-dihydropyrimido[4,5-d]pyrimidine-4(1H)-one]	10 to 500	< 10
CC[C@H](Nc1ncnc2c1C(=O)N(C)CN2)c1nc2cccc(F)c2c(=O)n1-c1ccccc1 [Example 41, (S)-5-((1-(5-fluoro-4-oxo-3-phenyl-3,4-dihydroquinazoline-2-yl)propyl)amino)-3-methyl-2,3-dihydropyrimido[4,5-d]pyrimidine-4(1H)-one]	10 to 500	10 to 500
CN1CNc2ncnc(N3CCC[C@H]3c3nc4cccc(Cl)c4c(=O)n3-c3ccccc3)c2C1=O [Example 42, (S)-5-(2-(5-chloro-4-oxo-3-phenyl-3,4-dihydroquinazoline-2-yl)pyrrolidine-1-yl)-3-methyl-2,3-dihydropyrimido[4,5-d]pyrimidine-4(1H)-one]	10 to 500	10 to 500
CN1CNc2ncnc(N3CCC[C@H]3c3nc4cccc(Cl)c4c(=O)n3-c3cccnc3)c2C1=O [Example 43, (S)-5-(2-(5-chloro-4-oxo-3-(pyridine-3-yl)-3,4-dihydroquinazoline-2-yl)pyrrolidine-1-yl)-3-methyl-2,3-dihydropyrimido[4,5-d]pyrimidine-4(1H)-one]	> 500	> 500
CN1CNc2ncnc(N3CCC[C@H]3c3nc4cccc(Cl)c4c(=O)n3-c3cccc(F)c3)c2C1=O [Example 44, (S)-5-(2-(5-chloro-3-(3-fluorophenyl)-4-oxo-3,4-dihydroquinazoline-2-yl)pyrrolidine-1-yl)-3-methyl-2,3-dihydropyrimido[4,5-d]pyrimidine-4(1H)-one]	< 10	10 to 500
